{"source": "patent US20230248665A1", "about": "“COMPOSITION COMPRISING DIMETHYLCHALCONE DERIVATIVE FOR PREVENTION OR TREATMENT OF METABOLIC DISEASE” (SEOUL NATIONAL UNIVERSITY R & DB FOUNDATION, priority 2020, published 2023)", "assay_type_in_all_cases": "cell-based", "key": {"[1]": {"test_system": "rat aortic smooth muscle cells", "test": "PDGF-induced migration of vascular smooth muscle cells", "conditions": "1 µM with 10 ng/mL PDGF; FIG. 4", "description": "Proliferation and migration of vascular smooth muscle cells are known to be essential steps in the progression of vascular diseases such as restenosis and arteriosclerosis. Therefore, in order to confirm the effect of the DMC derivatives of Example 1 on the migration of rat aortic smooth muscle cells, smooth muscle cells were treated with 10 ng/mL platelet-derived growth factor (PDGF) and 1 µM DMC derivative and cultured. Then, the degree of cell migration was measured."}, "AMPK": {"test_system": "AMPK", "test": "AMPK activity, western blotting of phosphorylated AMPK in C2C12 myotubes", "conditions": "FIG. 2", "from_the_text": "AMP-activated protein kinase (AMPK) is a member of serine/threonine kinases, and is an enzyme known as an energy sensor which senses the intracellular energy state. Moreover, the activation of AMPK is known to show the effect of increasing glucose transport and promoting fatty acid oxidation in skeletal muscle, and to […] the synthesis of cholesterol and triglycerides, decrease lipogenesis, and increase fatty acid oxidation, and ketogenesis, and the like in the liver. Further, the activation of AMPK is known to reduce adipogenesis in adipose tissue and increase insulin secretion in pancreatic beta cells, thereby being able to be applied to the treatment of various metabolic diseases. Therefore, western blotting was performed in order to confirm the effect of the DMC derivatives of Example 1 on AMPK activity. More specifically, the C2C12 myoblasts were primarily cultured in DMEM supplemented with 10% fetal bovine serum, and then cultured in DMEM supplemented with 2% horse serum for 5 days to differentiate into myotubes. Then, the differentiated myotubes were treated with 10 µM DMC derivative and cultured for 24 hours, and then cells were collected, and disrupted using an ultrasonic disperser to obtain proteins. Next, western blotting was performed using a pAMPK antibody (Cell Signaling Technology) and an AMPK antibody (Cell Signaling Technology) to measure the amount of phosphorylated AMPK. 1 mM AICAR was used as a positive control, and 20 µg of protein was used for each sample in western blotting."}, "[2]": {"test_system": "human kidney proximal tubule epithelial cell (HK-2) cell line", "test": "Antioxidant effect, intracellular reactive oxygen species (DCF-DA) in HK-2 kidney cells after H2O2", "conditions": "1 µM for 18 hours, then 500 µM H2O2 for 6 hours, FIG. 6", "description": "First, the antioxidant effect was checked using kidney cells. More specifically, a human kidney proximal tubule epithelial cell (HK-2) cell line was treated with 1 µM DMC derivative and cultured for 18 hours. Then, 500 µM H2O2 was added to the culture medium and the culture medium was incubated for 6 hours. Thereafter, the amount of intracellular reactive oxygen species (iROS) was measured using dichlorohydro-fluorescein diacetate (DCF-DA)."}}, "data": [{"smiles": "COc1c(C)c(OC)c(C(=O)/C=C/c2ccc(C)cc2)c(OC)c1C", "note": "[Chemical Formula 18, 1-(3′,5′-dimethyl-2′,4′,6′-trimethoxyphenyl)-3-(4-tolyl)-2-propen-1-one]", "values": [{"measurement": "migration of vascular smooth muscle cells", "setting": "[1]", "value": "similarly or more effectively suppressed cell migration by PDGF than AICAR and Rosi, which were used as positive controls, and DMC"}]}, {"smiles": "COCOc1ccc(/C=C/C(=O)c2c(OC)c(C)c(OC)c(C)c2OC)cc1", "note": "[Chemical Formula 20, 1-(3′,5′-dimethyl-2′,4′,6′-trimethoxyphenyl)-3-(4-methoxymethoxyphenyl)-2-propen-1-one]", "values": [{"measurement": "activity of AMPK (phosphorylated AMPK)", "setting": "AMPK; 10 µM, 24 hours", "value": "increased the activity of AMPK similarly to or more effectively than the positive controls"}, {"measurement": "amount of intracellular reactive oxygen species (ROS)", "setting": "[2]", "value": "effectively reduced ROS"}, {"measurement": "migration of vascular smooth muscle cells", "setting": "[1]", "value": "similarly or more effectively suppressed cell migration by PDGF than AICAR and Rosi, which were used as positive controls, and DMC"}]}, {"smiles": "COc1c(C)c(O)c(C)c(O)c1C(=O)/C=C/c1ccccc1", "note": "[DMC, 2′,4′-dihydroxy-6′-methoxy-3′,5′-dimethylchalcone, reference compound]", "values": [{"measurement": "activity of AMPK (phosphorylated AMPK)", "setting": "AMPK; 10 µM, 24 hours", "value": "increased the activity of AMPK"}]}, {"smiles": "NC(=O)c1ncn([C@@H]2O[C@H](CO)[C@@H](O)[C@H]2O)c1N", "note": "[AICAR, reference compound]", "values": [{"measurement": "activity of AMPK (phosphorylated AMPK)", "setting": "AMPK; positive control 1 mM AICAR", "value": "increased the activity of AMPK"}]}, {"smiles": "COCOc1c(C)c(O)c(C(=O)/C=C/c2ccccc2F)c(OC)c1C", "note": "[Chemical Formula 34, 1-(2′-hydroxy-4′-(methoxymethoxy)-6′-methoxy-3′,5′-dimethylphenyl)-3-(2-fluorophenyl)-2-propen-1-one]", "values": [{"measurement": "migration of vascular smooth muscle cells", "setting": "[1]", "value": "similarly or more effectively suppressed cell migration by PDGF than AICAR and Rosi, which were used as positive controls, and DMC"}]}, {"smiles": "COc1c(C)c(O)c(C)c(O)c1C(=O)/C=C/c1ccccc1F", "note": "[Chemical Formula 31, 1-(2′,4′-dihydroxy-6′-methoxy-3′,5′-dimethylphenyl)-3-(2-fluorophenyl)-2-propen-1-one]", "values": [{"measurement": "activity of AMPK (phosphorylated AMPK)", "setting": "AMPK; 10 µM, 24 hours", "value": "increased the activity of AMPK similarly to or more effectively than the positive controls"}, {"measurement": "amount of intracellular reactive oxygen species (ROS)", "setting": "[2]", "value": "effectively reduced ROS"}, {"measurement": "migration of vascular smooth muscle cells", "setting": "[1]", "value": "similarly or more effectively suppressed cell migration by PDGF than AICAR and Rosi, which were used as positive controls, and DMC"}]}, {"smiles": "COc1c(C)c(O)c(C)c(O)c1C(=O)/C=C/c1cccc(F)c1", "note": "[Chemical Formula 32, 1-(2′,4′-dihydroxy-6′-methoxy-3′,5′-dimethylphenyl)-3-(3-fluorophenyl)-2-propen-1-one]", "values": [{"measurement": "activity of AMPK (phosphorylated AMPK)", "setting": "AMPK; 10 µM, 24 hours", "value": "increased the activity of AMPK similarly to or more effectively than the positive controls"}]}, {"smiles": "COc1ccc(/C=C/C(=O)c2c(O)c(C)c(O)c(C)c2OC)cc1", "note": "[Chemical Formula 5, 1-(2′,4′-dihydroxy-6′-methoxy-3′,5′-dimethylphenyl)-3-(4-methoxyphenyl)-2-propen-1-one]", "values": [{"measurement": "activity of AMPK (phosphorylated AMPK)", "setting": "AMPK; 10 µM, 24 hours", "value": "increased the activity of AMPK similarly to or more effectively than the positive controls"}]}, {"smiles": "COCOc1ccc(/C=C/C(=O)c2c(O)c(C)c(OCOC)c(C)c2OC)cc1", "note": "[Chemical Formula 28, 1-(2′-hydroxy-4′-(methoxymethoxy)-6′-methoxy-3′,5′-dimethylphenyl)-3-(4-methoxymethoxyphenyl)-2-propen-1-one]", "values": [{"measurement": "activity of AMPK (phosphorylated AMPK)", "setting": "AMPK; 10 µM, 24 hours", "value": "increased the activity of AMPK similarly to or more effectively than the positive controls"}, {"measurement": "migration of vascular smooth muscle cells", "setting": "[1]", "value": "similarly or more effectively suppressed cell migration by PDGF than AICAR and Rosi, which were used as positive controls, and DMC"}]}, {"smiles": "COc1c(C)c(O)c(C)c(O)c1C(=O)/C=C/c1ccc(C(C)C)cc1", "note": "[Chemical Formula 4, 1-(2′,4′-dihydroxy-6′-methoxy-3′,5′-dimethylphenyl)-3-(4-isopropylphenyl)-2-propen-1-one]", "values": [{"measurement": "amount of intracellular reactive oxygen species (ROS)", "setting": "[2]", "value": "effectively reduced ROS"}, {"measurement": "migration of vascular smooth muscle cells", "setting": "[1]", "value": "similarly or more effectively suppressed cell migration by PDGF than AICAR and Rosi, which were used as positive controls, and DMC"}]}, {"smiles": "COc1c(C)c(OC)c(C(=O)/C=C/c2ccc(C(C)C)cc2)c(OC)c1C", "note": "[Chemical Formula 19, 1-(3′,5′-dimethyl-2′,4′,6′-trimethoxyphenyl)-3-(4-isopropylphenyl)-2-propen-1-one]", "values": [{"measurement": "activity of AMPK (phosphorylated AMPK)", "setting": "AMPK; 10 µM, 24 hours", "value": "increased the activity of AMPK similarly to or more effectively than the positive controls"}, {"measurement": "migration of vascular smooth muscle cells", "setting": "[1]", "value": "similarly or more effectively suppressed cell migration by PDGF than AICAR and Rosi, which were used as positive controls, and DMC"}]}, {"smiles": "COCOc1c(C)c(O)c(C(=O)/C=C/c2ccc(C)cc2)c(OC)c1C", "note": "[Chemical Formula 26, 1-(2′-hydroxy-4′-(methoxymethoxy)-6′-methoxy-3′,5′-dimethylphenyl)-3-(4-tolyl)-2-propen-1-one]", "values": [{"measurement": "activity of AMPK (phosphorylated AMPK)", "setting": "AMPK; 10 µM, 24 hours", "value": "increased the activity of AMPK similarly to or more effectively than the positive controls"}, {"measurement": "migration of vascular smooth muscle cells", "setting": "[1]", "value": "similarly or more effectively suppressed cell migration by PDGF than AICAR and Rosi, which were used as positive controls, and DMC"}]}, {"smiles": "COCOc1c(C)c(O)c(C(=O)/C=C/c2ccc(C(C)C)cc2)c(OC)c1C", "note": "[Chemical Formula 27, 1-(2′-hydroxy-4′-(methoxymethoxy)-6′-methoxy-3′,5′-dimethylphenyl)-3-(4-isopropylphenyl)-2-propen-1-one]", "values": [{"measurement": "activity of AMPK (phosphorylated AMPK)", "setting": "AMPK; 10 µM, 24 hours", "value": "increased the activity of AMPK similarly to or more effectively than the positive controls"}, {"measurement": "migration of vascular smooth muscle cells", "setting": "[1]", "value": "similarly or more effectively suppressed cell migration by PDGF than AICAR and Rosi, which were used as positive controls, and DMC"}]}, {"smiles": "COc1c(C)c(OC)c(C(=O)/C=C/c2ccccc2)c(OC)c1C", "note": "[Chemical Formula 17, 1-(3′,5′-dimethyl-2′,4′,6′-trimethoxyphenyl)-3-phenyl-2-propen-1-one]", "values": [{"measurement": "amount of intracellular reactive oxygen species (ROS)", "setting": "[2]", "value": "effectively reduced ROS"}, {"measurement": "migration of vascular smooth muscle cells", "setting": "[1]", "value": "similarly or more effectively suppressed cell migration by PDGF than AICAR and Rosi, which were used as positive controls, and DMC"}]}, {"smiles": "COc1c(C)c(OC)c(C(=O)/C=C/c2ccc(O)cc2)c(OC)c1C", "note": "[Chemical Formula 22, 1-(3′,5′-dimethyl-2′,4′,6′-trimethoxyphenyl)-3-(4-hydroxyphenyl)-2-propen-1-one]", "values": [{"measurement": "activity of AMPK (phosphorylated AMPK)", "setting": "AMPK; 10 µM, 24 hours", "value": "increased the activity of AMPK similarly to or more effectively than the positive controls"}, {"measurement": "migration of vascular smooth muscle cells", "setting": "[1]", "value": "similarly or more effectively suppressed cell migration by PDGF than AICAR and Rosi, which were used as positive controls, and DMC"}]}, {"smiles": "COc1c(C)c(OC)c(C(=O)/C=C/c2ccc(F)cc2)c(OC)c1C", "note": "[Chemical Formula 16, 1-(3′,5′-dimethyl-2′,4′,6′-trimethoxyphenyl)-3-(4-fluorophenyl)-2-propen-1-one]", "values": [{"measurement": "amount of intracellular reactive oxygen species (ROS)", "setting": "[2]", "value": "effectively reduced ROS"}, {"measurement": "migration of vascular smooth muscle cells", "setting": "[1]", "value": "similarly or more effectively suppressed cell migration by PDGF than AICAR and Rosi, which were used as positive controls, and DMC"}]}, {"smiles": "COc1c(C)c(O)c(C)c(O)c1C(=O)/C=C/c1ccccc1Cl", "note": "[Chemical Formula 37, 1-(2′,4′-dihydroxy-6′-methoxy-3′,5′-dimethylphenyl)-3-(2-chlorophenyl)-2-propen-1-one]", "values": [{"measurement": "activity of AMPK (phosphorylated AMPK)", "setting": "AMPK; 10 µM, 24 hours", "value": "increased the activity of AMPK similarly to or more effectively than the positive controls"}, {"measurement": "migration of vascular smooth muscle cells", "setting": "[1]", "value": "similarly or more effectively suppressed cell migration by PDGF than AICAR and Rosi, which were used as positive controls, and DMC"}]}, {"smiles": "COCOc1c(C)c(O)c(C(=O)/C=C/c2ccc(OC)cc2)c(OC)c1C", "note": "[Chemical Formula 29, 1-(2′-hydroxy-4′-(methoxymethoxy)-6′-methoxy-3′,5′-dimethylphenyl)-3-(4-methoxyphenyl)-2-propen-1-one]", "values": [{"measurement": "activity of AMPK (phosphorylated AMPK)", "setting": "AMPK; 10 µM, 24 hours", "value": "increased the activity of AMPK similarly to or more effectively than the positive controls"}, {"measurement": "migration of vascular smooth muscle cells", "setting": "[1]", "value": "similarly or more effectively suppressed cell migration by PDGF than AICAR and Rosi, which were used as positive controls, and DMC"}]}, {"smiles": "COc1ccc(/C=C/C(=O)c2c(OC)c(C)c(OC)c(C)c2OC)cc1", "note": "[Chemical Formula 21, 1-(3′,5′-dimethyl-2′,4′,6′-trimethoxyphenyl)-3-(4-methoxyphenyl)-2-propen-1-one]", "values": [{"measurement": "activity of AMPK (phosphorylated AMPK)", "setting": "AMPK; 10 µM, 24 hours", "value": "increased the activity of AMPK similarly to or more effectively than the positive controls"}, {"measurement": "migration of vascular smooth muscle cells", "setting": "[1]", "value": "similarly or more effectively suppressed cell migration by PDGF than AICAR and Rosi, which were used as positive controls, and DMC"}]}]}
